# Assays:
# [1] = test system: collagen induced arthritis (CIA) in DBA/1 mice; assay: Collagen induced arthritis (CIA) in DBA/1 mice, clinical score; format: in vivo, mouse; conditions: for decrease of mean clinical score compared with control group: as from day 5 post-treatment
# Description: Induction of collagen induced arthritis (CIA) in DBA/1 mice treated with oral 2,4-D. Forty DBA/1 mice (8-12 weeks of age; 20 males and 20 females) were obtained from the Center for Experimental Animals in Beijing, China. The CIA model was established according to the standard Hooke Protocol (accessible at https://hookelabs.com/protocols/cialnduction_DBA1.html). Complete Freund's adjuvant (CFA) and incomplete Freund's adjuvant (IFA) were purchased from Hooke Laboratories. 35 days after immunization, the 40 immunized mice were distributed randomly into 4 groups (10 controls, 10 treated with 0.2 mg daily oral 2,4-D, 10 treated with 1 mg daily oral 2,4-D for 15 days). All animals were followed for an additional 15 days post-treatment.
# CIA scoring. CIA is scored on a scale of 0 to 16 (0 to 4 for each paw, adding the scores for all 4 paws), using the following criteria:
# Statistical analysis. Data are presented as the mean±SEM for the in vivo animal study. Statistical analysis was performed using Student's t-test (paired 2-sample testing).
# IL-17 = assay: IL-17A production in anti-CD3/CD28-stimulated mouse spleen cells (ELISA); format: cell-based; conditions: for production and release of IL-17 in supernatant: 72 h
# Method: Briefly, before the experiment, 48-well plates were coated with 150 μl/well hamster anti-mouse CD3 (Clone 145-2C11, NA/LE, BD PHM, USA) at a concentration of 10 μg/ml and incubated overnight at 4° C. The next day, a C57BL/6 mouse was euthanized by cervical dislocation, and its spleen was aseptically dissected using sterile techniques. The harvested spleen was placed in a small Petri dish containing 10 ml of ice-cold PBS/FBS, ground using 2 frosted microscope slides, and filtered through a piece of 40 μm nylon material to yield a single cell suspension. Thereafter, the spleen cell suspension was carefully dispensed onto mouse lymphocyte separation medium (TBD Science Inc, Tianjin, China) and the lymphocytes were collected after density gradient centrifugation. After washing and cell counting, cell density was adjusted to 1 million cells/mL with RPMI 1640 (Gibco) plus 10% FCS and 1 μg/mL anti-mouse CD28 (BD PHM). […] After stimulation for 72 hours with anti-CD3 and anti-CD28 monoclonal antibodies, culture supernatants were collected and IL-17A measured with an IL-17A mouse ELISA kit (Thermo Fisher Scientific Inc.) according to the manufacturer's instructions. Cell count and viability were also evaluated with 0.4% trypan blue (Thermo Fisher Scientific Inc.) staining.
# [2] = test system: laser-induced choroidal neovascularization (CNV); assay: Laser-induced CNV in rats, CNV surface on lectin-labelled RPE-choroid flat-mounts; format: in vivo, rat; conditions: intravitreous injection
# Method: Animals. All experiments were performed in accordance with the European Communities Council Directive 86/609/EEC and approved by local ethical committees (#2541-2015110210279792 v3). Six- to eight-week-old male Long Evans rats from the Janvier Breeding Center (Le Genest-Saint-Isle, France) were used to create a rat model of choroidal neovascularization (CNV) used as a model of human wet macular degeneration. Laser-induced CNV. After anesthesia and dilation of the pupils, coverslips were positioned on the cornea as a contact glass. […] Animals were sacrificed at 7 days (n=6 per group- and at 16 days (n=6 per group). RPE-choroid flat-mounts and CNV quantifications. Two days after FA examination (time necessary for fluorescein elimination), eyes were enucleated, fixed in 4% PFA for 15 min at room temperature and sectioned at the limbus; the cornea and lens were discarded. The retina was separated from the RPE-choroid complex. Eight radial incisions were made on the RPE-choroid, which was then flat-mounted and post-fixed with acetone for 15 min at −20° C. After washing with 0.1% Triton x100 in PBS, FITC-GSL I-Isolectin B4 (1:200, Vector, AbCys, Paris, France) was applied over night at […] Images of the CNV were captured with a digital video camera coupled to a computer system on an Olympus fluorescence microscope. […]
smiles,measurement,setting,value
"COc1cc(O)c(OC)c(O)c1C(=O)/C=C/c1ccccc1 [2,4-D, 2′,4′-dihydroxy-3′,6′-dimethoxychalcone]",decrease of mean clinical score compared with control group,[1]; high dose 1 mg per day oral,2- to 7 fold
same,suppression of CIA after withdrawal of treatment,"[1]; high dose, 15 days after withdrawal",maintained
same,decrease of mean clinical score compared with control group,[1]; low dose 0.2 mg per day oral,2- to 3 fold
same,production and release of IL-17 in supernatant,IL-17; 1 μg/ml,significantly suppressed
same,production and release of IL-17 in supernatant,IL-17; 5 μg/ml,significantly suppressed
same,suppression of IL-17 on adding recombinant mouse IL-23,IL-17; recombinant mouse IL-23 5 ng/ml,completely reversed
same,CNV size (surface of lectin positive labelling),[2],significantly reduced
